Data as given in a melting point compilation (Tetko et al.; mined from patent text by program, amines drawn as free bases though some values may be those of a salt).

Compound	melting point [°C]
O=c1c2cc(O)ccc2sc2c([N+](=O)[O-])ccc(Cl)c12	> 300
CCc1c(C(=O)c2cc(C)cc(C#N)c2)[nH]c(=O)[nH]c1=O	253 to 254
CCCCCCCCCCCCCCCCCCOc1cc(N(CC(=O)O)CC(=O)O)cc(S(C)=O)c1 (centres undefined)	147 to 149
CCc1cc(C#N)ccc1N1C(=O)C(=O)N(C(C)(C)CC)C1=S	173
Clc1ccc2c(c1)C(c1ccccc1)=NCc1nccn1-2	146 to 148
CN(C)n1cc(C(=O)O)c(=O)c2cc(F)c(Cl)cc21	255 to 256
Cc1cc2c(c3c1NC(=O)C(C)(C)C3)OC(C)(CBr)C2 (centres undefined)	158 to 160
COc1ccc2[nH]c3c(c2c1[N+](=O)[O-])CCC3=O	293
Cc1n[nH]c(NCCCCOc2cccc(CN3CCCCC3)c2)n1	138 to 139
NS(=O)(=O)c1cc2c(cc1Cl)NC(CCCCCO)NS2(=O)=O (centres undefined)	190
COc1ccc(N=Nc2ccc(O)c(C(=O)Nc3ccc(OC)c(-c4nn(C(C)=O)c5cc(C)nn45)c3)c2)cc1	282 to 283
O=c1[nH]cnc(C(F)(F)F)c1Br	226 to 227
O=C(NN=C1C=CC=NC1)c1cccnc1	213 to 216
CN1C(=O)C(NC(=O)CCC2CCCCC2)N=C(c2ccccc2)c2cnccc21 (centres undefined)	170 to 173
CSc1ccc(C(C#N)=NO)cc1	132 to 133
COc1ccc(C(C#N)=NOS(=O)(=O)C(C)C)cc1	72
Cn1ncc2c1-c1c(Oc3ncccn3)sc(C(=O)O)c1CC2	256 to 258
Cc1cccc(-c2ccc3c(c2)c(C(=O)C(=O)NCC(=O)O)cn3Cc2ccc(C(C)(C)C)cc2)c1	108 to 109
Cc1cc(-c2ccc(S(C)(=O)=O)cc2)n(-c2ccc(C)c(C)c2)c1	126 to 128
NCc1ccc2c(c1)c(C1CCN(CCN3CCNC3=O)CC1)cn2-c1ccc(F)cc1	171 to 175
O=C1CNc2ncc(I)cc2N1Cc1cc(Cl)ccc1Cl	> 200
CCN(CC)C(=O)n1cnc(SCC2CC2)n1	51 to 52

Compound	melting point [°C]
CN(C)c1nc(O)cc(O)n1	> 300
CN(C)CCOc1ccc2[nH]c(C(=O)N3CC(CCl)c4c3cc([N+](=O)[O-])c3cc([N+](=O)[O-])ccc43)cc2c1 (centres undefined)	263 to 264
CC(C)(C)c1cc(-c2nnc(NS(C)(=O)=O)s2)cc(C(C)(C)C)c1O	293 to 294
O=C(O)c1cc(Cl)cc(Cl)c1[N+](=O)[O-]	190 to 192
COC(=O)NN=Cc1ccc([N+](=O)[O-])cc1	212 to 213
CNC(=C[N+](=O)[O-])NCCSCc1cc(OC)ccn1	107 to 108
O=C1Nc2cc(C(F)(F)F)ccc2C1=O	196 to 198
N#Cc1cc([N+](=O)[O-])ccc1N1CCNCC1CCO (centres undefined)	100 to 102
CCOC(=O)c1sc(N2CCN(CC3CC3(F)F)C2=O)nc1C (centres undefined)	146 to 148
CC(C(=O)OCN1C(=O)CCC(N2C(=O)c3ccccc3C2=O)C1=O)N(C)C(=O)OC(C)(C)C (centres undefined)	123 to 125
CCCCN1CCC(CNC(=O)c2cc(Cl)c(NC)n3ccnc23)CC1	148
O=S(Cc1cccs1)c1ncc(Br)cn1 (centres undefined)	108 to 109
COc1ccc(C(=O)OC2C(OC)C=C(C)C(=O)CC2(C)C)cc1 (centres undefined)	100 to 101
Cc1cc(NC(C)(C)C)nc(NC(C)(C)C)c1C#N	134 to 138
COc1ccc2[nH]c(SCc3cc(N4CCOCC4)c(F)cn3)nc2c1	142 to 144
COC(CN(C)C(=O)Nc1nnc(C(C)Oc2ccc(Cl)cc2Cl)s1)OC (centres undefined)	125 to 127
O=Nc1ccc(NC2CCCCC2)cc1	90 to 92
Cc1ccc(C)c(Cc2c3ccc(C(C)(C)C)cc3c(Cc3cc(C)ccc3C)c3ccc(C(C)(C)C)cc23)c1	273 to 275
N=C(OCC1CC1)N1CCC(c2nsc3ccccc23)CC1	85 to 87
N#Cc1cc(F)c(-n2nc(C(F)(F)F)n(C(F)F)c2=O)cc1F	68
CCCCCN(CCC12CC3CC(CC(C3)C1)C2)C(=O)NCCC(C)c1ccncc1 (centres undefined)	93 to 98

Next, values leading:

melting point [°C]	Compound
84 to 87	c1ccc2c(c1)SCCc1c-2n(CCCN2CCCCC2)c2ccccc12
199 to 200	CC(C)n1nc(-c2cc(C(N)=O)c(Cl)nc2-c2ccccc2)ccc1=O
178 to 179	CN(C)C(=O)Nc1ccc(O)cc1
177 to 178	Cc1cc(C(=O)NCO)ncc1C(c1c(F)ccc(F)c1F)S(=O)(=O)c1ccc(Cl)cc1 (centres undefined)
205 to 207	NC(=S)NCC(c1ccccc1)c1ccccc1
130 to 132	CC(C)OCCNc1ccc(C(=O)N2CCN(CCc3ccc(Cl)cc3)CC2)cc1
175 to 176	CCc1cc(OCc2ccc(C(=O)NS(=O)(=O)c3ccccc3C)cc2)c(C(=O)OC)c(CC)n1
133	COc1ccc(S(=O)(=O)C2(C(=O)O)CCCN(Cc3ccccc3)C2)cc1 (centres undefined)
218	O=C(Nc1ncc(C(F)(F)F)o1)C1c2ccccc2Oc2ccccc21
> 300	OCc1cnc2ccc(Cl)cc2c1O
230 to 233	O=C(NC(=O)c1c(Cl)cccc1Cl)Nc1ccc(-c2ccc(Cl)cc2)cn1
252 to 255	Cc1ccccc1-c1c2c(cc3ccc4c(c13)OCO4)C(=O)NC2
120 to 122	CCCNC(=O)Oc1ccc2c(ccn2N(CCC)c2ccncc2)c1
89	CCOC(=O)C1=C(C)NN=C(CC)C1c1cccc(OC)c1 (centres undefined)
228 to 230	O=C(O)c1cccc2cc(-c3ccc(Cl)cc3)oc12
135 to 137	N#Cc1ccccc1NC(=O)C1CCCCC1

melting point [°C]	Compound
130	CC(C)Cn1nc(-c2ccccc2)cc(COS(C)(=O)=O)c1=O
103 to 104	CCOC(=O)c1ccc(OCc2nc(-c3ccccc3)oc2C)c(OC)c1
189 to 190	CCCOC(C)c1ccc2[nH]c3cnc(C(=O)OCC)c(COC)c3c2c1 (centres undefined)
80 to 83	COC(=N)N1CCC(c2nn(-c3ccccc3)c3ccccc23)CC1
98 to 100	Nc1ccc(C(=O)c2cccc(F)c2)cc1
121 to 122	CC(C)(OCc1nn(Cc2ccccc2)c2ccccc12)C(=O)Nc1ccccn1
119 to 120	CCOC(=O)/C=C/c1cn(Cc2ccc3cc(OCc4ccccc4)ccc3c2)cc1-c1ccccc1
101 to 103	O=C(Nc1ccc(CCO)c(CO)c1)OCc1ccccc1
120 to 123	CC(C)(C)C(=O)c1ccc(C(=O)N[C@@H](Cc2ccccc2)C(N)=O)cc1
214 to 217	CCOP(=O)(CC(=O)Nc1cc2c(Nc3ccc(F)c(Br)c3)ncnc2cn1)OCC
112 to 114	O=C(CO)c1ccc(C(F)(F)F)cc1
69	COC(=S)C1CCn2c(C(=O)c3ccccc3)ccc21 (centres undefined)
154 to 156	Cc1[nH]nc(CN2CCN(Cc3c[nH]c4ncccc34)CC2)c1-c1ccccc1
90	Nc1c(OCc2ccccc2)cc(Br)cc1[N+](=O)[O-]
235 to 239	O=C(Nc1nc(=O)c2cnn3c2n1CC=C3c1cccc(C(F)(F)F)c1)c1ccccc1
